According to patent US12065436B2, “Cardiac sarcomere inhibitors” (Cytokinetics, Inc., priority 2018, dated 2024):

Biological target: bovine cardiac myofibrils (full-length cardiac myosin ATPase in the native sarcomere) (Bos taurus (Bovine), UniProt Q9BE39)
Test: Skinned bovine cardiac myofibril ATPase assay (PK/LDH-coupled)
Assay type: biochemical
Settings: Ca2+ activating to 75% of maximal rate; for CDMF75 IC15: concentration giving 15% inhibition; for IC50: read-out: CDMF75 IC50
Outline: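 Inhibition of steady-state ATPase read at 340 nm through a PK/LDH-coupled NADH system (0.5 mM NADH, 1.5 mM PEP). Detergent-skinned bovine cardiac myofibrils, 1 mg/mL, were tested at pH 6.8 in PIPES/MgCl2 with 50 μM ATP and calcium adjusted to give pCa50 or pCa75 activation.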

bovine cardiac myofibrils (full-length cardiac myosin ATPase in the native sarcomere), sequence (Q9BE39 whole entry): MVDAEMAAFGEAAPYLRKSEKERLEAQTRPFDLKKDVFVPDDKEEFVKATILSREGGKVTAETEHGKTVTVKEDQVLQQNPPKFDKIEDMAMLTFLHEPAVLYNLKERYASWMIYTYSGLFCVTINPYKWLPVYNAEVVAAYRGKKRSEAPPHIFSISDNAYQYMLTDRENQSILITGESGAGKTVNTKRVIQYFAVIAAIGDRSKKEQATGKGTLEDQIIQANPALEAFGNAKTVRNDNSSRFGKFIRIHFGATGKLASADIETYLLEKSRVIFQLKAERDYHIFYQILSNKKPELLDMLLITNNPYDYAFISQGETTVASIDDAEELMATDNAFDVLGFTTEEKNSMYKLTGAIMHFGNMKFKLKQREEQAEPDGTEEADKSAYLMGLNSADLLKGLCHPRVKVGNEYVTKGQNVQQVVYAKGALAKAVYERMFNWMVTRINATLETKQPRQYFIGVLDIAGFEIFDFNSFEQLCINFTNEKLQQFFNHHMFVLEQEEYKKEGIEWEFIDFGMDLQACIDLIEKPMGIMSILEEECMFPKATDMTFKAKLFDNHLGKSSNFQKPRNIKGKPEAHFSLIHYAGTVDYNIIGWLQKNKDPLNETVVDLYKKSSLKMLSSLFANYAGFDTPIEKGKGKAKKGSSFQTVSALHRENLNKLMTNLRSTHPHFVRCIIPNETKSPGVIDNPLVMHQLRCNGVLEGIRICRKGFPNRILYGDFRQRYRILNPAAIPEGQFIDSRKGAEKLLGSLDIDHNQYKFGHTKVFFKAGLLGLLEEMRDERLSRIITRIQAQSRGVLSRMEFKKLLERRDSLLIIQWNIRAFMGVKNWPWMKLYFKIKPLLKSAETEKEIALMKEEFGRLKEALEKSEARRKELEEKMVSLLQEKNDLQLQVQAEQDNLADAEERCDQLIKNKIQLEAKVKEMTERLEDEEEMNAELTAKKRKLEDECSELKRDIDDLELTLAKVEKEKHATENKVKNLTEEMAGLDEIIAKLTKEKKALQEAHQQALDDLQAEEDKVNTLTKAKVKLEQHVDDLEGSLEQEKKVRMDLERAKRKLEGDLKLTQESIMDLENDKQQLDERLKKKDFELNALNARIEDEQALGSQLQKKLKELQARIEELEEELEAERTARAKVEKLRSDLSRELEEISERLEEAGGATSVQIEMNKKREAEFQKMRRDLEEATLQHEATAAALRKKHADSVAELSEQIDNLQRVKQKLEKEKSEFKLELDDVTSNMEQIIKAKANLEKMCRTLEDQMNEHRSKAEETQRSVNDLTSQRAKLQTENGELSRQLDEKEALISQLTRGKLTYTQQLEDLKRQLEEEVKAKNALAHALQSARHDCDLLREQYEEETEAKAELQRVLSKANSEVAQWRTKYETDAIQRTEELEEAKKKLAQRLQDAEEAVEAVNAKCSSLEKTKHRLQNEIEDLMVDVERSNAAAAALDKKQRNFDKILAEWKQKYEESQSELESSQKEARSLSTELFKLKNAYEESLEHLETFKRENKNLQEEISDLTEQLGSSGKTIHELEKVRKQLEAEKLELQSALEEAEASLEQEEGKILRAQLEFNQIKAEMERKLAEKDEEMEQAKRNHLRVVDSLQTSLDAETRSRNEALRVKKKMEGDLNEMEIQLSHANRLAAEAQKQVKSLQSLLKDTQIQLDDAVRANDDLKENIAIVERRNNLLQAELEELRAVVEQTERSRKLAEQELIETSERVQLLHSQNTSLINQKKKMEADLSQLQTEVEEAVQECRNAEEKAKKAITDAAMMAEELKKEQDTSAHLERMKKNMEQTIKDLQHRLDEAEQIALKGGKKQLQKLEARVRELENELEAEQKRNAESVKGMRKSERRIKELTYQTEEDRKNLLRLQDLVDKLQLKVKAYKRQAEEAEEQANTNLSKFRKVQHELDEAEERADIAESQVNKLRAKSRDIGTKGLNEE
bovine cardiac myofibrils (full-length cardiac myosin ATPase in the native sarcomere), sequence (P85100 whole entry partner): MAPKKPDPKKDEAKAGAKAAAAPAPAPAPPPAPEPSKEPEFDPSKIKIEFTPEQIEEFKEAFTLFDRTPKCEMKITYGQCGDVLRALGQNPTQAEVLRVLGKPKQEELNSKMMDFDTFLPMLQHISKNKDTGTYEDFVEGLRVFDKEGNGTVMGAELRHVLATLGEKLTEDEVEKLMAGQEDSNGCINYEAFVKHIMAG
bovine cardiac myofibrils (full-length cardiac myosin ATPase in the native sarcomere), sequence (Q3SZE5 whole entry partner): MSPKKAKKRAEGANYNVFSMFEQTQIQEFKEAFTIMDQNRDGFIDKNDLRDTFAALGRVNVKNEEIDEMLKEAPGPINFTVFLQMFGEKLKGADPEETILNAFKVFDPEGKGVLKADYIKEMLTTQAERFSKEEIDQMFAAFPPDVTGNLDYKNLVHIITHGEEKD

CDMF75 IC15 | IC50 | Compound
0.3 µM | 1.2 µM | CCc1cc(-c2ccc3c(c2)OC[C@H]3NC(=O)c2ccnc(C)c2)no1 [Compound 425, (S)-N-(6-(5-ethylisoxazol-3-yl)-2,3-dihydrobenzofuran-3-yl)-2-methylisonicotinamide]
0.3 µM | 1.1 µM | Cc1ncoc1C(=O)N[C@@H]1COc2cc(-c3noc(C4CC4)n3)ccc21 [Compound 456, (S)-N-(6-(5-cyclopropyl-1,2,4-oxadiazol-3-yl)-2,3-dihydrobenzofuran-3-yl)-4-methyloxazole-5-carboxamide]
2.0 µM | 6.8 µM | Cc1nc(-c2ccc3c(c2)CCC3NC(=O)c2cn(C)nc2C)no1 (stereo not shown) [Compound 55, 1,3-dimethyl-N-(5-(5-methyl-1,2,4-oxadiazol-3-yl)-2,3-dihydro-1H-inden-1-yl)-1H-pyrazole-4-carboxamide]
1.4 µM | 5.9 µM | Cc1nc(-c2ccc3c(c2)OCC3NC(=O)c2cn(C)nc2C)no1 (stereo not shown) [Compound 157, 1,3-dimethyl-N-(6-(5-methyl-1,2,4-oxadiazol-3-yl)-2,3-dihydrobenzofuran-3-yl)-1H-pyrazole-4-carboxamide]
2.6 µM | 10.1 µM | Cn1cc(C(=O)N[C@@H]2CCc3cc(-c4nc(C(F)F)no4)ccc32)cn1 [Compound 276, (R)-N-(5-(3-(difluoromethyl)-1,2,4-oxadiazol-5-yl)-2,3-dihydro-1H-inden-1-yl)-1-methyl-1H-pyrazole-4-carboxamide]
0.2 µM | 0.8 µM | CCc1nc(-c2ccc3c(c2)CC[C@H]3NC(=O)c2conc2C)no1 [Compound 566, (R)-N-(5-(5-ethyl-1,2,4-oxadiazol-3-yl)-2,3-dihydro-1H-inden-1-yl)-3-methylisoxazole-4-carboxamide]
1.7 µM | 7.5 µM | CCc1nc(-c2cc3c(cc2F)[C@H](NC(=O)c2cnn(C)c2)CC3)no1 [Compound 699, (R)-N-(5-(5-ethyl-1,2,4-oxadiazol-3-yl)-6-fluoro-2,3-dihydro-1H-inden-1-yl)-1-methyl-1H-pyrazole-4-carboxamide]
2.3 µM | 9.5 µM | CCc1nc(-c2ccc3c(c2)CC[C@H]3NC(=O)OCC(C)(C)OC)no1 [Compound 359, 2-methoxy-2-methylpropyl (R)-(5-(5-ethyl-1,2,4-oxadiazol-3-yl)-2,3-dihydro-1H-inden-1-yl)carbamate]
0.5 µM | 1.8 µM | Cc1cc(C(=O)N[C@@H]2CCc3cc(-c4cc(C(F)F)on4)ccc32)ccn1 [Compound 169, (R)-N-(5-(5-(difluoromethyl)isoxazol-3-yl)-2,3-dihydro-1H-inden-1-yl)-2-methylisonicotinamide]
1.1 µM | 4.7 µM | Cc1cc(C(=O)N[C@@H]2COc3cc(-c4noc(C)n4)ccc32)n(C)n1 [Compound 156, (S)-1,3-dimethyl-N-(6-(5-methyl-1,2,4-oxadiazol-3-yl)-2,3-dihydrobenzofuran-3-yl)-1H-pyrazole-5-carboxamide]
1.7 µM | 7 µM | CCc1nc(-c2ccc3c(c2)CC[C@H]3NC(=O)C2(C)CC2)no1 [Compound 329, (R)-N-(5-(5-ethyl-1,2,4-oxadiazol-3-yl)-2,3-dihydro-1H-inden-1-yl)-1-methylcyclopropane-1-carboxamide]
4.5 µM | 21.7 µM | O=C(NC1CCc2cc(-c3noc(C(F)F)n3)ccc21)C(F)F (stereo not shown) [Compound 1, N-(5-(5-(difluoromethyl)-1,2,4-oxadiazol-3-yl)-2,3-dihydro-1H-inden-1-yl)-2,2-difluoroacetamide]
1.2 µM | 5.3 µM | CC(=O)N[C@@H]1COc2cc(-c3noc(C4CC4)n3)ccc21 [Compound 457, (S)-N-(6-(5-cyclopropyl-1,2,4-oxadiazol-3-yl)-2,3-dihydrobenzofuran-3-yl)acetamide]
39.2 µM | > 39.2 µM | Cn1nccc1C(=O)N[C@@H]1CCc2cc(-c3ccnnc3)ccc21 [Compound 369, (R)-1-methyl-N-(5-(pyridazin-4-yl)-2,3-dihydro-1H-inden-1-yl)-1H-pyrazole-5-carboxamide]
0.5 µM | 1.6 µM | Cn1nccc1C(=O)NC1CCc2cc(-c3noc(C(F)F)n3)ccc21 (stereo not shown) [Compound 35, N-(5-(5-(difluoromethyl)-1,2,4-oxadiazol-3-yl)-2,3-dihydro-1H-inden-1-yl)-1-methyl-1H-pyrazole-5-carboxamide]
1.0 µM | 3.5 µM | CCOC(=O)c1cc(C(=O)N[C@@H]2CCc3cc(-c4noc(CC)n4)ccc32)ccn1 [Compound 555, Ethyl (R)-4-((5-(5-ethyl-1,2,4-oxadiazol-3-yl)-2,3-dihydro-1H-inden-1-yl)carbamoyl)picolinate]

CDMF75 IC15 | IC50 | Compound
1.1 µM | 6.8 µM | Cc1cc(C(=O)NC2COc3cc(-c4noc(C)n4)ccc32)ccn1 (stereo not shown) [Compound 18, 2-methyl-N-(6-(5-methyl-1,2,4-oxadiazol-3-yl)-2,3-dihydrobenzofuran-3-yl)isonicotinamide]
5.5 µM | 24.1 µM | Cc1nc(-c2ccc3c(c2)CCC3NC(=O)Nc2ccncc2)no1 (stereo not shown) [Compound 85, 1-(5-(5-methyl-1,2,4-oxadiazol-3-yl)-2,3-dihydro-1H-inden-1-yl)-3-(pyridin-4-yl)urea]
6.1 µM | 26.4 µM | O=C1C[C@H](C(=O)N[C@@H]2CCc3cc(-c4noc(C5CC5)n4)ccc32)N1 [Compound 315, (R)-N-((R)-5-(5-cyclopropyl-1,2,4-oxadiazol-3-yl)-2,3-dihydro-1H-inden-1-yl)-4-oxoazetidine-2-carboxamide]
1.2 µM | 4.1 µM | CC(C)c1nc(-c2ccc3c(c2)CC[C@H]3NC(=O)c2cnn(C)c2)no1 [Compound 394, (R)-N-(5-(5-isopropyl-1,2,4-oxadiazol-3-yl)-2,3-dihydro-1H-inden-1-yl)-1-methyl-1H-pyrazole-4-carboxamide]
0.3 µM | 1 µM | CCc1nc(-c2ccc3c(c2)CC[C@H]3NC(=O)c2cc(C)nn2C)no1 [Compound 567, (R)-N-(5-(5-ethyl-1,2,4-oxadiazol-3-yl)-2,3-dihydro-1H-inden-1-yl)-1,3-dimethyl-1H-pyrazole-5-carboxamide]
1.9 µM | 5.1 µM | [2H]C([2H])([2H])c1nc(-c2ccc3c(c2)OC[C@H]3NC(=O)c2oc(C)nc2C)no1 [Compound 268, (S)-2,4-dimethyl-N-(6-(5-(methyl-d3)-1,2,4-oxadiazol-3-yl)-2,3-dihydrobenzofuran-3-yl)oxazole-5-carboxamide]
1.1 µM | 4 µM | COCc1nc(-c2ccc3c(c2)CC[C@H]3NC(=O)c2cnn(C)c2C)no1 [Compound 181, (R)-N-(5-(5-(methoxymethyl)-1,2,4-oxadiazol-3-yl)-2,3-dihydro-1H-inden-1-yl)-1,5-dimethyl-1H-pyrazole-4-carboxamide]
0.5 µM | 1.7 µM | CCc1nc(-c2ccc3c(c2)CC[C@H]3NC(=O)c2cnc(C)o2)no1 [Compound 385, (R)-N-(5-(5-ethyl-1,2,4-oxadiazol-3-yl)-2,3-dihydro-1H-inden-1-yl)-2-methyloxazole-5-carboxamide]
1.2 µM | 4 µM | COCc1nc(-c2ccc3c(c2)OCC3NC(=O)c2cc(C)nn2C)no1 (stereo not shown) [Compound 226, N-(6-(5-(methoxymethyl)-1,2,4-oxadiazol-3-yl)-2,3-dihydrobenzofuran-3-yl)-1,3-dimethyl-1H-pyrazole-5-carboxamide]
1.3 µM | 4.9 µM | Cn1nnc(C(=O)N[C@@H]2CCc3cc(-c4nc(C(F)F)no4)ccc32)n1 [Compound 216, (R)-N-(5-(3-(difluoromethyl)-1,2,4-oxadiazol-5-yl)-2,3-dihydro-1H-inden-1-yl)-2-methyl-2H-tetrazole-5-carboxamide]
7.1 µM | 34.3 µM | CC(CO)c1nc(-c2ccc3c(c2)CC[C@H]3NC(=O)c2ccnn2C)no1 (stereo partly drawn) [Compound 496, N-((1R)-5-(5-(1-hydroxypropan-2-yl)-1,2,4-oxadiazol-3-yl)-2,3-dihydro-1H-inden-1-yl)-1-methyl-1H-pyrazole-5-carboxamide]
5.3 µM | 23.6 µM | Cc1cc(C(=O)N[C@@H]2COc3cc(-c4noc(C)n4)cnc32)ccn1 [Compound 188, (S)-2-methyl-N-(6-(5-methyl-1,2,4-oxadiazol-3-yl)-2,3-dihydrofuro[3,2-b]pyridin-3-yl)isonicotinamide]
0.5 µM | 1.9 µM | Cc1c(C(=O)N[C@@H]2CCc3cc(-c4noc(C5CC5)n4)ccc32)cnn1C [Compound 153, (R)-N-(5-(5-cyclopropyl-1,2,4-oxadiazol-3-yl)-2,3-dihydro-1H-inden-1-yl)-1,5-dimethyl-1H-pyrazole-4-carboxamide]
1.3 µM | 4.2 µM | COCc1nc(-c2ccc3c(c2)OCC3NC(=O)c2ccnn2C)no1 (stereo not shown) [Compound 223, N-(6-(5-(methoxymethyl)-1,2,4-oxadiazol-3-yl)-2,3-dihydrobenzofuran-3-yl)-1-methyl-1H-pyrazole-5-carboxamide]
0.7 µM | 2.8 µM | CCc1nc(-c2ccc3c(c2)CC[C@H]3NC(=O)c2cc(C)on2)no1 [Compound 569, (R)-N-(5-(5-ethyl-1,2,4-oxadiazol-3-yl)-2,3-dihydro-1H-inden-1-yl)-5-methylisoxazole-3-carboxamide]
4.4 µM | 16.8 µM | CCc1nc(-c2ccc3c(c2)CC[C@H]3NC(=O)c2cnn(C3COC3)c2)no1 [Compound 470, (R)-N-(5-(5-ethyl-1,2,4-oxadiazol-3-yl)-2,3-dihydro-1H-inden-1-yl)-1-(oxetan-3-yl)-1H-pyrazole-4-carboxamide]
